Key:
Assay in all cases: relative viability (nuclei count vs DMSO), 5 days (fraction); higher = more cells survive
Vismodegib + Alpelisib = compound: CS(=O)(=O)c1ccc(C(=O)Nc2ccc(Cl)c(-c3ccccn3)c2)c(Cl)c1 [Vismodegib] + Cc1nc(NC(=O)N2CCC[C@H]2C(N)=O)sc1-c1ccnc(C(C)(C)C(F)(F)F)c1 [Alpelisib] (partner 2 µM)
Procedure, shortened: (§1)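 A single step with final 0.05% Triton X-100, 1% formaldehyde and 1 ug/ml Hoechst fixed the cells and stained nuclei 5 days after treatment. Lung cancer cell lines in 1536-well plates had been treated by pin tool the day after seeding with one drug alone or a fixed anchor-drug dose plus five library-drug doses (not always all listed) in √10 steps, and nuclei were counted on 4× images. Relative viability is the ratio of nuclei in treated wells to nuclei in vehicle wells, taken as the median of duplicate plates.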

Vismodegib + Vorinostat = compound: CS(=O)(=O)c1ccc(C(=O)Nc2ccc(Cl)c(-c3ccccn3)c2)c(Cl)c1 [Vismodegib] + O=C(CCCCCCC(=O)Nc1ccccc1)NO [Vorinostat] (partner 1 µM)
Procedure, shortened: as §1

Ruxolitinib + Tozasertib = compound: N#CC[C@H](C1CCCC1)n1cc(-c2ncnc3[nH]ccc23)cn1 [Ruxolitinib] + Cc1cc(Nc2cc(N3CCN(C)CC3)nc(Sc3ccc(NC(=O)C4CC4)cc3)n2)n[nH]1 [Tozasertib] (partner 0.1 µM)
Procedure, shortened: as §1

Ruxolitinib + Dasatinib = compound: N#CC[C@H](C1CCCC1)n1cc(-c2ncnc3[nH]ccc23)cn1 [Ruxolitinib] + Cc1nc(Nc2ncc(C(=O)Nc3c(C)cccc3Cl)s2)cc(N2CCN(CCO)CC2)n1 [Dasatinib] (partner 0.075 µM)
Procedure, shortened: as §1

Cell Line	relative viability (Vismodegib + Alpelisib; first compound 0.08 µM)	relative viability (Vismodegib + Alpelisib; first compound 0.253 µM)	relative viability (Vismodegib + Alpelisib; first compound 0.8 µM)	relative viability (Vismodegib + Alpelisib; first compound 2.53 µM)	relative viability (Vismodegib + Alpelisib; first compound 8 µM)	relative viability (Vismodegib + Vorinostat; first compound 0.08 µM)	relative viability (Vismodegib + Vorinostat; first compound 0.253 µM)	relative viability (Vismodegib + Vorinostat; first compound 0.8 µM)	relative viability (Vismodegib + Vorinostat; first compound 2.53 µM)	relative viability (Vismodegib + Vorinostat; first compound 8 µM)	relative viability (Ruxolitinib + Tozasertib; first compound 0.08 µM)	relative viability (Ruxolitinib + Tozasertib; first compound 0.253 µM)	relative viability (Ruxolitinib + Tozasertib; first compound 0.8 µM)	relative viability (Ruxolitinib + Tozasertib; first compound 2.53 µM)	relative viability (Ruxolitinib + Tozasertib; first compound 8 µM)	relative viability (Ruxolitinib + Dasatinib; first compound 0.08 µM)	relative viability (Ruxolitinib + Dasatinib; first compound 0.253 µM)	relative viability (Ruxolitinib + Dasatinib; first compound 0.8 µM)	relative viability (Ruxolitinib + Dasatinib; first compound 2.53 µM)	relative viability (Ruxolitinib + Dasatinib; first compound 8 µM)
NCI-H2023	0.584	0.534	0.626	0.546	0.495	0.625	0.53	0.711	0.654	0.612	0.305	0.352	0.506	0.356	0.302	0.616	0.336	0.575	0.332	0.354
NCI-H1734	0.651	0.586	0.661	0.63	0.719	0.791	0.732	0.821	0.723	0.737	0.332	0.25	0.281	0.209	0.223	0.522	0.433	0.503	0.38	0.341
SK-LU-1	1.07	0.987	1.07	0.894	1.06	0.718	0.827	0.784	0.718	0.842	0.363	0.328	0.412	0.372	0.338	0.206	0.166	0.166	0.135	0.164
NCI-H3122	0.798	0.726	0.816	0.78	0.629	0.986	0.994	0.994	1.09	0.992		0.35	0.493	0.439	0.441	0.852	0.725	0.932	0.634	0.286
CAL-12T	1.12	1.02	1.37	1.2	1.3	0.894	0.699	0.787	0.705	0.799	0.348	0.412	0.344	0.313	0.312	0.497	0.546	0.561	0.25	0.163
HARA	0.833	0.863	0.817	0.8	0.788	0.501	0.546	0.521	0.495	0.453	0.113	0.111	0.112	0.107	0.119	0.224	0.323	0.305	0.195	0.22
NCI-H1666	0.913	0.879	0.813	1.01	1.13	1.04	0.957	1	1.01	1.06	0.596	0.579	0.587	0.585	0.521	0.869	0.757	0.838	0.76	0.528
NCI-H460	0.542	0.495	0.552	0.434	0.435	0.71	0.707	0.711	0.691	0.75		0.601	0.606	0.578	0.744	0.527	0.377	0.56	0.388	0.352
NCI-H2087	1.02	1.07	1.05	1	0.995	0.762	0.598	0.402	0.56	0.302	0.256	0.229	0.24	0.276	0.299	0.836	0.661	0.675	0.431	0.52
NCI-H1355	0.902	0.882	0.838	0.853	0.787	0.716	0.632	0.569	0.611	0.648	0.575	0.564	0.571	0.594	0.574	0.711	0.532	0.579	0.522	0.36
NCI-H838	0.904	0.952	1.09	0.978	1.02	0.696	0.715	0.727	0.743	0.733	0.299	0.23	0.256	0.223	0.225	0.253	0.251	0.286	0.211	0.211
SW 1573	0.7	0.691	0.717		0.754	0.77	0.564	0.895	0.636	0.679	0.209	0.182	0.167	0.183	0.16	0.742	0.459	0.72	0.357	0.237
NCI-H2085	0.899	0.841	0.992	0.931	0.962	0.743	0.835	0.821	0.852	0.727	0.882	0.765	0.886	0.77	0.688	0.278	0.268	0.282	0.293	0.299
NCI-H1651	0.922	0.877	1.04	0.81	1.09	0.581	0.582	0.547	0.49	0.503	0.714	0.637	0.64	0.573	0.682	0.323	0.37	0.389	0.337	0.29
NCI-H1993	0.684	0.655	0.713	0.687	0.629	0.854	0.69	0.728	0.779	0.794	0.585	0.618	0.643	0.631	0.551	0.532	0.523	0.579	0.488	0.583
NCI-H2126	0.681	0.734	0.782	0.686	0.706	0.704	0.744	0.695	0.72	0.663	0.864	0.848	1.1	0.975	0.838	0.599	0.526	0.715	0.616	0.453
NCI-H1793		0.642	0.77	0.809	0.671		0.717	0.733	0.734	0.748	0.343	0.368	0.48	0.492	0.309	0.286	0.394	0.389	0.303	0.243
LC-2-ad	0.894	0.909	0.859	0.818	0.918	0.7	0.729	0.701	0.667	0.529		0.435	0.548	0.482	0.515		0.476	0.54	0.382	0.272
NCI-H647	1.09	0.979	1.15	0.798	1.45	0.586	0.424	0.63	0.511	0.654	0.297	0.237	0.224	0.378	0.297	0.207	0.155	0.182	0.0851	0.106
LCLC-97TM1			0.287		0.287	0.731	0.64	0.656	0.632	0.42	0.178	0.316	0.229	0.305	0.348	0.912	0.731	0.712	0.62	0.623
LK-2	1.24	1.04	0.805	0.952	1.22	0.246	0.31	0.294	0.286	0.239	0.162	0.199	0.168	0.166	0.171	0.287	0.339	0.332	0.32	0.349
BEN	1.03	0.988	0.863	0.984	1.02	0.581	0.527	0.578	0.531	0.528	0.486	0.503	0.552	0.537	0.453	0.319	0.311	0.377	0.292	0.335
NCI-H650	1.1	1.14	1.14	1.04	1.17	0.434	0.413	0.353	0.392	0.488		0.834	0.788	0.554	0.603		0.366	0.453	0.295	0.293
EKVX	0.946	0.974	0.907	0.871	0.875	0.77	0.752	0.802	0.907	0.655	0.392	0.439	0.463	0.282	0.443	0.523	0.603	0.481	0.519	0.366
NCI-H1395	0.997	0.966	0.961	0.944	1.14	0.681	0.663	0.614	0.522	0.8	0.768	0.718	0.86	0.753	0.78	0.387	0.374	0.42	0.434	0.361
NCI-H2009	1.12	1.14	1.19	1.11	1.22	0.724	0.921	0.723	0.708	0.722	0.781	0.754	0.853	0.717	0.578	0.354	0.263	0.273	0.129	0.176
NCI-H23	0.801	0.588	0.672	0.652	0.853	0.622	0.568	0.496	0.434	0.571	0.434	0.418	0.437	0.401	0.301	0.536	0.679	0.8	0.597	0.517

From the supplement of paper PMC10307832
